Measurements from the NIST ThermoML archive (doi:10.1016/j.jct.2013.05.037).

Legend:
[1] = mn = molality of the nth substance listed, in mol/kg; conditions: for surface tension liquid-gas: Pendant drop shape; for viscosity / speed of sound / mass density: 101 kPa, Liquid; for viscosity: Capillary tube (Ostwald / Ubbelohde) method; for speed of sound: Sing-around technique in a fixed-path interferometer; for mass density: Vibrating tube method
[2] = for surface tension liquid-gas: Pendant drop shape; for viscosity / mass density: 101.33 kPa, Liquid; for viscosity: Capillary tube (Ostwald / Ubbelohde) method; for mass density: Vibrating tube method

NCC(=O)O [2-aminoacetic acid] + O
surface tension liquid-gas [mN/m], [1]
Conditions	m1 = 0.0502	m1 = 0.0755	m1 = 0.1007	m1 = 0.1261	m1 = 0.1514
293.15 K	72.83	72.89	72.77	72.66	72.54
298.15 K	72.09	72.14	72.03	71.88	71.79
303.15 K	71.29	71.35	71.24	70.95	70.84
308.15 K	70.49	70.55	70.6	70.66	70.71

C[C@H](N)C(=O)O [(S)-2-aminopropanoic acid] + O
surface tension liquid-gas [mN/m], [1]
Conditions	m1 = 0.0503	m1 = 0.0755	m1 = 0.1009	m1 = 0.1263	m1 = 0.1518
293.15 K	72.86	72.91	72.78	72.66	72.53
298.15 K	72.07	72.12	72	71.88	71.76
303.15 K	71.28	71.33	71.38	71.43	71.48
308.15 K	70.46	70.53	70.58	70.63	70.68

N[C@@H](Cc1ccccc1)C(=O)O [L-phenylalanine] + O
surface tension liquid-gas [mN/m], [1]
Conditions	m1 = 0.0505	m1 = 0.0759	m1 = 0.1015	m1 = 0.1273	m1 = 0.1532
293.15 K	72.38	71.94	70.99	70.56	70.14
298.15 K	71.09	70.66	69.74	68.37	66.91
303.15 K	70.83	69.91	68.53	66.61	64.53
308.15 K	70.03	68.98	66.59	65.22	63.35

CCCCCCCC[N+](C)(CCCCCCCC)CCCCCCCC.[Cl-] [N-methyl-N,N-dioctyl-1-octanaminium chloride] + O
[1], m1 = 0.002
Conditions	mass density [kg/m3]	speed of sound [m/s]	surface tension liquid-gas [mN/m]	viscosity [mPa·s]
293.15 K	998.54	1483.4	29.98	1.043
298.15 K	997.375	1497.3	29.17	0.9291
303.15 K	995.978	1510.7	28.93	0.8195
308.15 K	994.348	1520.2	28.19	0.7465

CCCCCCCCCCCCCCCC[n+]1ccccc1.[Cl-] [cetylpyridinium chloride] + O
[1], m1 = 0.002
Conditions	mass density [kg/m3]	speed of sound [m/s]	surface tension liquid-gas [mN/m]	viscosity [mPa·s]
293.15 K	998.567	1483.1	41.75	1.004
298.15 K	997.407	1497.2	41.6	0.9033
303.15 K	996.012	1509.4	41.57	0.8137
308.15 K	994.387	1519.8	41.35	0.7557

O [water]
[2]
Conditions	mass density [kg/m3]	surface tension liquid-gas [mN/m]	viscosity [mPa·s]
293.15 K	998.587	72.75	1.002
298.15 K	997.425	71.97	0.8937
303.15 K	996.04	71.18	0.8001
308.15 K	994.425	70.38	0.7225

O [water] + C[C@H](N)C(=O)O
[1], m2 = 0
Conditions	surface tension liquid-gas [mN/m]
293.15 K	72.75
298.15 K	71.97
303.15 K	71.18
308.15 K	70.38

O [water] + NCC(=O)O
[1], m2 = 0
Conditions	surface tension liquid-gas [mN/m]
293.15 K	72.75
298.15 K	71.97
303.15 K	71.18
308.15 K	70.38

O [water] + N[C@@H](Cc1ccccc1)C(=O)O
[1], m2 = 0
Conditions	surface tension liquid-gas [mN/m]
293.15 K	72.75
298.15 K	71.97
303.15 K	71.18
308.15 K	70.38
